According to US11845759B2, “Opioid compounds and uses thereof” (priority 2018, dated 2023):

Key:
[1] = Hydrolysis in simulated intestinal fluid at 37° C.; conditions: for 6,14-bis-PEG-Oxy (%): 6,14-bis-PEG-Oxycodone (86%, 14% mono-PEG) in simulated Intestinal fluid (pH=6.8), 37° C.; for 6-lauroyl-Oxy (%): 6-lauroyl-Oxycodone, simulated intestinal fluid with 0.5% Polysorbate 80, 37° C.
[2] = Hydrolysis in human blood serum at 37° C.; conditions: for 6,14-bis-PEG-Oxy (%): 6,14-bis-PEG-Oxycodone (86%, 14% mono-PEG) in human serum, 37° C.
μ-opioid receptor [3] = target: T1, μ-opioid receptor (Homo sapiens (Human), UniProt P35372); type: binding
μ-opioid receptor [4] = target: T1, μ-opioid receptor; assay: [35S]GTPγS μ-opioid receptor functional assay; type: biochemical; conditions: for functional profile at μ-opioid receptor (in words): conclusion from Table 23
[5] = Hydrolysis in simulated gastric fluid at 37° C.; conditions: 6,14-bis-PEG-Oxycodone (86%, 14% mono-PEG) in simulated gastric fluid (pH=1.2)
[6] = Hydrolysis in pH buffer/EtOH solutions; type: physicochemical
[7] = Hydrolysis in HCl solutions; type: physicochemical; conditions: 6,14-bis-lauroyl-Oxycodone, 1.0N HCl (75% EtOH)
[8] = 6,14-bis-lauroyl-Oxycodone, pH 7 buffer (75% EtOH), 0 h
[9] = 6,14-bis-lauroyl-Oxycodone, pH 7 buffer (75% EtOH), 0.5 h
[10] = 6,14-bis-lauroyl-Oxycodone, pH 7 buffer (75% EtOH), 2 h
[11] = 6,14-bis-lauroyl-Oxycodone, pH 7 buffer (75% EtOH), 4 h
[12] = 6,14-bis-lauroyl-Oxycodone, pH 7 buffer (75% EtOH), 8 h
[13] = 6,14-bis-lauroyl-Oxycodone, pH 7 buffer (75% EtOH), 24 h
[14] = 6,14-bis-lauroyl-Oxycodone, pH 9 buffer (75% EtOH), 0 h
[15] = 6,14-bis-lauroyl-Oxycodone, pH 9 buffer (75% EtOH), 0.5 h
[16] = 6,14-bis-lauroyl-Oxycodone, pH 9 buffer (75% EtOH), 2 h
[17] = 6,14-bis-lauroyl-Oxycodone, pH 9 buffer (75% EtOH), 8.5 h
[18] = 6,14-bis-lauroyl-Oxycodone, pH 9 buffer (75% EtOH), 22.5 h
[19] = 6,14-bis-lauroyl-Oxycodone, pH 11 buffer (75% EtOH), 0 h
[20] = 6,14-bis-lauroyl-Oxycodone, pH 11 buffer (75% EtOH), 0.17 h
[21] = 6,14-bis-lauroyl-Oxycodone, pH 11 buffer (75% EtOH), 0.5 h
[22] = 6,14-bis-lauroyl-Oxycodone, pH 11 buffer (75% EtOH), 2 h
[23] = 6,14-bis-lauroyl-Oxycodone, pH 11 buffer (75% EtOH), 8.5 h
[24] = 6,14-bis-lauroyl-Oxycodone, pH 11 buffer (75% EtOH), 22.5 h
[25] = 6-lauroyl-Oxycodone, pH 9 buffer (75% EtOH), 0 h
[26] = 6-lauroyl-Oxycodone, pH 9 buffer (75% EtOH), 0.5 h
[27] = 6-lauroyl-Oxycodone, pH 9 buffer (75% EtOH), 2 h
[28] = 6-lauroyl-Oxycodone, pH 9 buffer (75% EtOH), 4 h
[29] = 6-lauroyl-Oxycodone, pH 9 buffer (75% EtOH), 8 h
[30] = 6-lauroyl-Oxycodone, pH 11 buffer (75% EtOH), 0 h
[31] = 6-lauroyl-Oxycodone, pH 11 buffer (75% EtOH), 0.5 h
[32] = 6-lauroyl-Oxycodone, pH 11 buffer (75% EtOH), 4 h
[33] = 6-lauroyl-Oxycodone, pH 11 buffer (75% EtOH), 8 h

COc1ccc2c3c1OC1C(OC(C)=O)=CC[C@@]4(OC(C)=O)[C@@H](C2)N(C)CC[C@]314 (some centres unmarked) [6,14-Diacetyl oxycodone, 6,14-bis-acetyl Oxycodone]
hydrolysis products (in words) ([1]; mixture in simulated intestinal fluid (37° C., pH 6.8, pancreatine)): hydrolyzes to create additional 6-acetyl oxycodone and 14-acetyl oxycodone

COCCOCCOCC(=O)OC1=CCC2(OC(=O)COCCOCCOC)[C@H]3Cc4ccc(OC)c5c4[C@@]2(CCN3C)C1O5 (some centres unmarked) [6,14-bis-PEG oxycodone]
6,14-bis-PEG-Oxy (%) ([2]; 0 h): 86%
6,14-bis-PEG-Oxy (%) ([2]; 0.17 h): 0.71%
6,14-bis-PEG-Oxy (%) ([2]; 1 h): 0%
Ki (μ-opioid receptor [3]): 52 nM
Ki compared with that of oxycodone (in words) (μ-opioid receptor [3]): comparable
EC50 (μ-opioid receptor [4]): 520 nM
% Response Agonist (μ-opioid receptor [4]; Conc. 3 μM, criteria ≥± 50%): 85%
functional profile at μ-opioid receptor (in words) (μ-opioid receptor [4]): μ-receptor agonist as effective as oxycodone
6,14-bis-PEG-Oxy (%) ([1]; 0 h): 86%
6,14-bis-PEG-Oxy (%) ([1]; 0.17 h): 0%
6,14-bis-PEG-Oxy (%) ([5]; 0 h): 86%
6,14-bis-PEG-Oxy (%) ([5]; 1 h): 77.7%
6,14-bis-PEG-Oxy (%) ([5]; 2 h): 72.5%
6,14-bis-PEG-Oxy (%) ([5]; 4 h): 65.6%
6,14-bis-PEG-Oxy (%) ([5]; 20 h): 30.2%

CCCCCCCCCCCC(=O)OC1=CC[C@@]2(OC(=O)CCCCCCCCCCC)[C@H]3Cc4ccc(OC)c5c4[C@@]2(CCN3C)C1O5 (some centres unmarked) [6,14-bis-lauroyl oxycodone]
Ki (μ-opioid receptor [3]): 22200 nM
Ki compared with that of oxycodone (in words) (μ-opioid receptor [3]): significantly higher
binding to μ-opioid receptor (in words) (μ-opioid receptor [3]): does not bind to μ-opioid receptor well
6,14-bis-lauroyl-Oxy (%) [6, 8]: 99%
Oxy (%) [6, 8]: 0%
mono-lauroyl-Oxy (%) [6, 8]: 0%
6,14-bis-lauroyl-Oxy (%) [6, 9]: 98%
Oxy (%) [6, 9]: 0%
mono-lauroyl-Oxy (%) [6, 9]: 1%
6,14-bis-lauroyl-Oxy (%) [6, 10]: 98%
Oxy (%) [6, 10]: 0%
mono-lauroyl-Oxy (%) [6, 10]: 2%
6,14-bis-lauroyl-Oxy (%) [6, 11]: 98%
Oxy (%) [6, 11]: 0%
mono-lauroyl-Oxy (%) [6, 11]: 2%
6,14-bis-lauroyl-Oxy (%) [6, 12]: 98%
Oxy (%) [6, 12]: 0%
mono-lauroyl-Oxy (%) [6, 12]: 2%
6,14-bis-lauroyl-Oxy (%) [6, 13]: 94.3%
Oxy (%) [6, 13]: 0%
mono-lauroyl-Oxy (%) [6, 13]: 5.7%
6,14-bis-lauroyl-Oxy (%) [6, 14]: 99%
Oxy (%) [6, 14]: 0%
mono-lauroyl-Oxy (%) [6, 14]: 0%
6,14-bis-lauroyl-Oxy (%) [6, 15]: 98.7%
Oxy (%) [6, 15]: 0%
mono-lauroyl-Oxy (%) [6, 15]: 1.3%
6,14-bis-lauroyl-Oxy (%) [6, 16]: 98.4%
Oxy (%) [6, 16]: 0%
mono-lauroyl-Oxy (%) [6, 16]: 1.6%
6,14-bis-lauroyl-Oxy (%) [6, 17]: 96.2%
Oxy (%) [6, 17]: 0%
mono-lauroyl-Oxy (%) [6, 17]: 3.8%
6,14-bis-lauroyl-Oxy (%) [6, 18]: 93.4%
Oxy (%) [6, 18]: 0%
mono-lauroyl-Oxy (%) [6, 18]: 6.6%
6,14-bis-lauroyl-Oxy (%) [6, 19]: 99%
Oxy (%) [6, 19]: 0%
mono-lauroyl-Oxy (%) [6, 19]: 0%
6,14-bis-lauroyl-Oxy (%) [6, 20]: 83.7%
Oxy (%) [6, 20]: 0.5%
mono-lauroyl-Oxy (%) [6, 20]: 16.3%
6,14-bis-lauroyl-Oxy (%) [6, 21]: 63.9%
Oxy (%) [6, 21]: 1%
mono-lauroyl-Oxy (%) [6, 21]: 33.1%
6,14-bis-lauroyl-Oxy (%) [6, 22]: 14.7%
Oxy (%) [6, 22]: 2.8%
mono-lauroyl-Oxy (%) [6, 22]: 60.5%
6,14-bis-lauroyl-Oxy (%) [6, 23]: 0%
Oxy (%) [6, 23]: 5.4%
mono-lauroyl-Oxy (%) [6, 23]: 94.6%
6,14-bis-lauroyl-Oxy (%) [6, 24]: 0%
Oxy (%) [6, 24]: 10.2%
mono-lauroyl-Oxy (%) [6, 24]: 89.8%
6,14-bis-lauroyl-Oxy (%) ([7]; 0 h): 99%
Oxy (%) ([7]; 0 h): 0%
mono-lauroyl-Oxy (%) ([7]; 0 h): 0%
6,14-bis-lauroyl-Oxy (%) ([7]; 0.5 h): 97%
Oxy (%) ([7]; 0.5 h): 0%
mono-lauroyl-Oxy (%) ([7]; 0.5 h): 2.9%
6,14-bis-lauroyl-Oxy (%) ([7]; 2 h): 95.1%
Oxy (%) ([7]; 2 h): 0%
mono-lauroyl-Oxy (%) ([7]; 2 h): 4.7%
6,14-bis-lauroyl-Oxy (%) ([7]; 4 h): 94%
Oxy (%) ([7]; 4 h): 0%
mono-lauroyl-Oxy (%) ([7]; 4 h): 6%
6,14-bis-lauroyl-Oxy (%) ([7]; 8 h): 91.4%
Oxy (%) ([7]; 8 h): 0%
mono-lauroyl-Oxy (%) ([7]; 8 h): 8.6%
6,14-bis-lauroyl-Oxy (%) ([7]; 24 h): 77.1%
Oxy (%) ([7]; 24 h): 0%
mono-lauroyl-Oxy (%) ([7]; 24 h): 22.9%

COCCOCCOCC(=O)OC1=CC[C@@]2(O)[C@H]3Cc4ccc(OC)c5c4[C@@]2(CCN3C)C1O5 (some centres unmarked) [6-PEG oxycodone]
Ki (μ-opioid receptor [3]): 22 nM
Ki compared with that of oxycodone (in words) (μ-opioid receptor [3]): comparable
EC50 (μ-opioid receptor [4]): 390 nM
% Response Agonist (μ-opioid receptor [4]; Conc. 3 μM, criteria ≥± 50%): 90%

COc1ccc2c3c1OC1C(OC(C)=O)=CCC4[C@@H](C2)N(C)CC[C@]314 (some centres unmarked) [6-acetyl hydrocodone]
hydrolysis in human blood serum (in words) ([2]; human blood serum (37° C.)): hydrolyzed quickly
% hydrolyzed to hydrocodone ([2]; human blood serum (37° C.), 30 minutes): 99%
% hydrolyzed to hydrocodone ([2]; human blood serum (37° C.), five minutes): 70%

CCCCCCCCCCCC(=O)OC1=CC[C@@]2(O)[C@H]3Cc4ccc(OC)c5c4[C@@]2(CCN3C)C1O5 (some centres unmarked) [6-lauroyl oxycodone]
Ki (μ-opioid receptor [3]): 96 nM
Ki compared with that of oxycodone (in words) (μ-opioid receptor [3]): comparable
6-lauroyl-Oxy (%) [6, 25]: 99%
Oxy (%) [6, 25]: 0%
6-lauroyl-Oxy (%) [6, 26]: 98%
Oxy (%) [6, 26]: 1%
6-lauroyl-Oxy (%) [6, 27]: 98%
Oxy (%) [6, 27]: 1%
6-lauroyl-Oxy (%) [6, 28]: 98%
Oxy (%) [6, 28]: 1%
6-lauroyl-Oxy (%) [6, 29]: 98%
Oxy (%) [6, 29]: 1%
6-lauroyl-Oxy (%) [6, 30]: 99%
Oxy (%) [6, 30]: 0%
6-lauroyl-Oxy (%) [6, 31]: 24.5%
Oxy (%) [6, 31]: 75.5%
6-lauroyl-Oxy (%) [6, 32]: 7.2%
Oxy (%) [6, 32]: 92.8%
6-lauroyl-Oxy (%) [6, 33]: 6.2%
Oxy (%) [6, 33]: 93.8%
EC50 (μ-opioid receptor [4]): 990 nM
% Response Agonist (μ-opioid receptor [4]; Conc. 3 μM, criteria ≥± 50%): 52%
6-lauroyl-Oxy (%) ([1]; 0 h): 99%
6-lauroyl-Oxy (%) ([1]; 0.17 h): 56.9%
6-lauroyl-Oxy (%) ([1]; 0.5 h): 54.8%
6-lauroyl-Oxy (%) ([1]; 1 h): 52.6%
6-lauroyl-Oxy (%) ([1]; 2 h): 50.8%
6-lauroyl-Oxy (%) ([1]; with additional fresh intestinal fluid 30 min): 18.6%

COc1ccc2c3c1OC1C(=O)CCC4(OC(C)=O)C(C2)N(C)CCC314 (centres unmarked) [14-acetyl oxycodone]
% Response Agonist (μ-opioid receptor [4]; Conc. 3 μM, criteria ≥± 50%): 79%
functional profile at μ-opioid receptor (in words) (μ-opioid receptor [4]): μ-receptor agonist as effective as oxycodone

CCCCCCCCCCCC(=O)O[C@@]12CCC(=O)C3Oc4c(OC)ccc5c4[C@@]31CCN(C)[C@@H]2C5 (some centres unmarked) [14-lauroyl oxycodone]
% Response Agonist (μ-opioid receptor [4]; Conc. 100 μM, criteria ≥± 50%): 56%
% Response Antagonist (μ-opioid receptor [4]; Conc. 100 μM, criteria ≥± 50%): 56%
functional profile at μ-opioid receptor (in words) (μ-opioid receptor [4]): partial agonist and a partial antagonist
